Measured values: US20060211673A1, “Modulation of neurodegenerative diseases through the estrogen receptor” (ALSGEN, LLC, priority 2005, published 2006)
Blank lines part the entries; values can stand above or below the compound they belong to.

How the values were obtained:
HeLa cells = assay: Bradford total protein assay of HeLa lysates (check for cytotoxic effects); format: cell-based, human; conditions: 72 hours
Experimental: To determine if decrements found in the SOD-1 assay were simply the result of cytotoxic effects of the drug treatment, total protein was determined for each well. While the ELISA incubation was ongoing, 10 μl of the remaining lysate was removed from each well and placed into another empty plate, and BioRad Bradford reagent (100 μl) was added to the protein. After a 15 min incubation at room temperature the plate was shaken gently for 5 seconds and the absorbance was read at 595 nm in a Tecan Sunrise plate reader. Protein concentrations in each well were thus determined by comparison with protein standards that were run on the same plate.
Following 72 hours of incubation with the drugs, the cells were photographed and processed as described in Example 1 (iii). The total protein of the lysates was determined by Bradford assay as described in Example 1 (iv). […] This reduction was dose related and maximal by 3 μM, with an IC50 of 2 μM.

SOD-1 protein = assay: SOD-1 ELISA on lysates of HeLa cells after 72 hours of incubation with drug; format: cell-based, human
Experimental: Briefly, cells were maintained in Dulbecco's Minimal Essential Medium, with high glucose, supplemented with glutamine, 4 mM, certified fetal bovine serum, 10%, and penicillin, streptomycin, and nystatin (all from Invitrogen). Incubation conditions were 37 degrees and 99% relative humidity, with CO2 at 5%. Cultures were passaged when they reached 90% confluence. For pharmacological experiments, cells were plated into sterile tissue culture treated 96 well plates at a density of 3,500 cells/well in 150 μl medium. After plating and 6 hours for attachment, drugs were added to the medium in a concentration of 10 μM. Following 72 hours of incubation with the drugs, the cells were photographed at 100× using an inverted microscope and digital camera, so that cytotoxicity could be evaluated. After photodocumentation, the medium was removed and the cells were washed once with phosphate buffered saline, and then 50 μl molecular biology grade water containing a protease inhibitor cocktail was added. After 10 min incubation, the plates were placed in −80 degrees to induce complete lysis. Plates were then thawed and 25 μl was transferred from each well into a maxsorp ELISA plate coated with anti-human SOD-1 antibody, which contained 75 μl phosphate buffered saline. A second antibody pair (a polyclonal anti-SOD-1/HRP conjugated goat anti-rabbit) was then added to the well, and incubation was conducted for 1 hour at room temperature. At the conclusion of the incubation, the plate was washed three times (wash buffer from KPL Inc.) and Sure Blue Reserve HRP Substrate was added. […] The plate was then shaken gently for 5 seconds and the absorbance at 450 mn read on a Tecan Plate reader. Absorbance from each sample were compared to standard curve of purified recombinant human SOD-1 assayed on the same ELISA plate, and SOD-1 immunoreactivity (ng/ml) was estimated by comparison with the standard curve. […] The total protein of the lysates was determined by Bradford assay as described in Example 1 (iv). […]

SOD-1 mRNA = SOD-1 mRNA by RT-PCR in blood of the SOD-93A murine model for ALS; format: in vivo; conditions: SOD-93A mice, ip 1 or 10 mg/kg for 14 days, lymphocyte/blood samples, p<0.05, FIG. 2
Experimental: The effects of the estrogen receptor modulating agent (e.g., Estradiol), and analogs thereof described in Examples 2 were tested in vivo in the SOD-93A murine model for ALS, and a reduction in SOD-1 levels was measured. The inhibition of RNA expression was monitored by isolated blood samples from a mouse pre- and post introduction of the compound (estradiol benzoate) using standard RT-PCR techniques. The expression of the SOD-1 protein was determined using Western blot techniques with an anti-SOD-1 antibody from Sigma. […] The results are shown as a % of internal control, 18S rRNA.

- IC50 (SOD-1 protein; drug added to culture medium 72 hours before harvest, read-out: IC50 of reduction of SOD-1 protein levels): 2000 nM
SMILES: C[C@]12CC[C@@H]3c4ccc(O)cc4CC[C@H]3[C@@H]1CC[C@@H]2O [Estradiol]
- total protein levels (HeLa cells): unaffected
- concentration at which reduction of SOD-1 protein is maximal (SOD-1 protein; 72 hours, dose related): ≤ 3 µM

SMILES: C[C@]12CC[C@@H]3c4ccc(OC(=O)c5ccccc5)cc4CC[C@H]3[C@@H]1CC[C@@H]2O [estradiol benzoate]
- SOD-1 mRNA (% of internal control, 18S rRNA) (SOD-1 mRNA): decreased

SMILES: CCCCC(=O)O[C@H]1CC[C@H]2[C@@H]3CCc4cc(O)ccc4[C@H]3CC[C@]12C [estradiol valerate]
- levels of SOD-1 protein (SOD-1 protein; 72 hours, FIG. 1): reduction
